Assay results reported in BigSolDB 2.1.

CCOc1cc(C=O)ccc1O
solubility (mole fraction)
Conditions | 273.15 K | 278.15 K | 283.15 K | 288.15 K | 293.15 K | 298.15 K | 303.15 K | 308.15 K | 313.15 K
in acetone | 0.199 | 0.216 | 0.237 | 0.271 | 0.3 | 0.33 | 0.369 | 0.416 | 0.459
in ethanol | 0.0564 | 0.0721 | 0.0911 | 0.109 | 0.141 | 0.183 | 0.224 | 0.283 | 0.34
in isopropanol | 0.0336 | 0.0433 | 0.0552 | 0.072 | 0.0957 | 0.124 | 0.166 | 0.221 | 0.294
in methanol | 0.0867 | 0.114 | 0.147 | 0.181 | 0.214 | 0.257 | 0.307 | 0.358 | 0.418
